Source: PMC4306947, “Synthesis and Antiproliferative Activity of Thiazolyl-bis-pyrrolo[2,3-b]pyridines and Indolyl-thiazolyl-pyrrolo[2,3-c]pyridines, Nortopsentin Analogues” (Marine Drugs, 2015)

| Compound | melting point |
| --- | --- |
| Cn1cc(-c2csc(-c3cn(C)c4ncccc34)n2)c2cc(Br)cnc21 [Compound 1h, 5-Bromo-1-methyl-3-[2-(1-methyl-1H-pyrrolo[2,3-b]pyridin-3-yl)-1,3-thiazol-4-yl]-1H pyrrolo[2,3-b]pyridine] | 308 °C |
| Cn1cc(-c2nc(-c3c[nH]c4ncc(Br)cc34)cs2)c2cccnc21 [Compound 1e, 3-[4-(5-Bromo-1H-pyrrolo[2,3-b]pyridin-3-yl)-1,3-thiazol-2-yl]-1-methyl-1H-pyrrolo[2,3-b]pyridine] | 311 °C |
| Cn1cc(-c2nc(-c3c[nH]c4ncccc34)cs2)c2cccnc21 [Compound 1d, 1-Methyl-3-[4-(1H-pyrrolo[2,3-b]pyridin-3-yl)-1,3-thiazol-2-yl]-1H-pyrrolo[2,3-b]pyridine] | 278 to 279 °C |
| Cn1cc(-c2csc(-c3cn(C)c4ncccc34)n2)c2cccnc21 [Compound 1g, 3,3′-(1,3-Thiazole-2,4-diyl)bis(1-methyl-1H-pyrrolo[2,3-b]pyridine)] | 310 to 311 °C |
| Brc1cnc2[nH]cc(-c3csc(-c4c[nH]c5ncccc45)n3)c2c1 [Compound 1b, 5-Bromo-3-[2-(1H-pyrrolo[2,3-b]pyridin-3-yl)-1,3-thiazol-4-yl)-1H-pyrrolo[2,3-b]pyridine] | 390 to 391 °C |
| Cn1cc(C2(c3c[nH]c4ncccc34)CSC=N2)c2cccnc21 (stereo not shown) [Compound 1j, 1-Methyl-3-[4-(1H-pyrrolo[2,3-b]pyridin-3-yl)-1,3-thiazol-4-yl]-1H-pyrrolo[2,3-b]pyridine] | 303 to 304 °C |
| Fc1cnc2[nH]cc(-c3csc(-c4c[nH]c5ncccc45)n3)c2c1 [Compound 1c, 5-Fluoro-3-[2-(1H-pyrrolo[2,3-b]pyridin-3-yl)-1,3-thiazol-4-yl]-1H-pyrrolo[2,3-b]pyridine] | 373 to 374 °C |
| c1cnc2[nH]cc(-c3csc(-c4c[nH]c5ncccc45)n3)c2c1 [Compound 1a, 3,3′-(1,3-Thiazole-2,4-diyl)bis(1H-pyrrolo[2,3-b]pyridine)] | 346 to 347 °C |
| Cn1cc(-c2nc(-c3c[nH]c4ncc(F)cc34)cs2)c2cccnc21 [Compound 1f, 3-[4-(5-Fluoro-1H-pyrrolo[2,3-b]pyridin-3-yl)-1,3-thiazol-2-yl]-1-methyl-1H-pyrrolo[2,3-b]pyridine] | 316 °C |
| Cn1cc(-c2nc(-c3cn(C)c4c(Cl)nccc34)cs2)c2ccccc21 [Compound 2e, 7-Chloro-1-methyl-3-[2-(1-methyl-1H-indol-3-yl)-1,3-thiazol-4-yl]-1H-pyrrolo[2,3-c]pyridine] | 265 to 266 °C |
| Cn1cc(-c2csc(-c3c[nH]c4ccccc34)n2)c2ccnc(Cl)c21 [Compound 4d, 7-Chloro-3-[2-(1H-indol-3-yl)-1,3-thiazol-4-yl]-1-methyl-1H-pyrrolo[2,3-c]pyridine] | 210 to 211 °C |
| Cn1cc(-c2csc(-c3c[nH]c4ncccc34)n2)c2cc(F)cnc21 [Compound 1l, 5-Fluoro-1-methyl-3-[2-(1H-pyrrolo[2,3-b]pyridin-3-yl)-1,3-thiazol-4-yl]-1H-pyrrolo[2,3-b]pyridine] | 295 to 296 °C |
| Cn1cc(-c2csc(-c3cn(C)c4ncccc34)n2)c2cc(F)cnc21 [Compound 1i, 5-Fluoro-1-methyl-3-[2-(1-methyl-1H-pyrrolo[2,3-b]pyridin-3-yl)-1,3-thiazol-4-yl]-1H-pyrrolo[2,3-b]pyridine] | 301 to 302 °C |

Next, values leading:

| melting point | Compound |
| --- | --- |
| 337 to 338 °C | Cn1cc(-c2nc(-c3c[nH]c4c(Cl)nccc34)cs2)c2cc(F)ccc21 [Compound 2d, 7-Chloro-3-[2-(5-fluoro-1-methyl-1H-indol-3-yl)-1,3-thiazol-4-yl]-1H-pyrrolo[2,3-c]pyridine] |
| 271 to 272 °C | Clc1nccc2c(-c3csc(-c4c[nH]c5ccccc45)n3)c[nH]c12 [Compound 4a, 7-Chloro-3-[2-(1H-indol-3-yl)-1,3-thiazol-4-yl]-1H-pyrrolo[2,3-c]pyridine] |
| 257 °C | Cn1cc(-c2csc(-c3cn(C(=O)OC(C)(C)C)c4ccc(Br)cc34)n2)c2ccnc(Cl)c21 [Compound 3f, Tert-Butyl 5-bromo-3-[4-(7-chloro-1-methyl-1H-pyrrolo[2,3-c]pyridin-3-yl)-1,3-thiazol-2-yl]-1H-indole-1-carboxylate] |
| 312 to 313 °C | COc1ccc2c(c1)c(-c1nc(-c3c[nH]c4c(Cl)nccc34)cs1)cn2C(=O)OC(C)(C)C [Compound 3b, Tert-Butyl 3-[4-(7-chloro-1H-pyrrolo[2,3-c]pyridin-3-yl)-1,3-thiazol-2-yl]-5-methoxy-1H-indole-1-carboxylate] |
| 273 to 274 °C | Cn1cc(-c2csc(-c3c[nH]c4ccc(Br)cc34)n2)c2ccnc(Cl)c21 [Compound 4f, 3-[2-(5-Bromo-1H-indol-3-yl)-1,3-thiazol-4-yl]-7-chloro-1-methyl-1H-pyrrolo[2,3-c]pyridine] |
| 279 to 280 °C | Cn1cc(-c2csc(-c3cn(C(=O)OC(C)(C)C)c4ccccc34)n2)c2ccnc(Cl)c21 [Compound 3d, Tert-Butyl 3-[4-(7-chloro-1-methyl-1H-pyrrolo[2,3-c]pyridin-3-yl)-1,3-thiazol-2-yl]-1H-indole-1-carboxylate] |
| 216 to 217 °C | COc1ccc2c(c1)c(-c1nc(-c3c[nH]c4c(Cl)nccc34)cs1)cn2C [Compound 2b, 7-Chloro-3-[2-(5-methoxy-1-methyl-1H-indol-3-yl)-1,3-thiazol-4-yl]-1H-pyrrolo[2,3-c]pyridine] |
| 223 to 224 °C | COc1ccc2[nH]cc(-c3nc(-c4c[nH]c5c(Cl)nccc45)cs3)c2c1 [Compound 4b, 7-Chloro-3-[2-(5-methoxy-1H-indol-3-yl)-1,3-thiazol-4-yl]-1H-pyrrolo[2,3-c]pyridine] |
| 231 to 232 °C | COc1ccc2c(c1)c(-c1nc(-c3cn(C)c4c(Cl)nccc34)cs1)cn2C [Compound 2f, 7-Chloro-3-[2-(5-methoxy-1-methyl-1H-indol-3-yl)-1,3-thiazol-4-yl]-1-methyl-1H-pyrrolo[2,3-c]pyridine] |
| 326 to 327 °C | Cn1cc(-c2nc(-c3c[nH]c4c(Cl)nccc34)cs2)c2ccccc21 [Compound 2a, 7-Chloro-3-[2-(1-methyl-1H-indol-3-yl)-1,3-thiazol-4-yl]-1H-pyrrolo[2,3-c]pyridine] |
| 374 to 375 °C | Cn1cc(-c2nc(-c3c[nH]c4c(Cl)nccc34)cs2)c2cc(Br)ccc21 [Compound 2c, 3-[2-(5-Bromo-1-methyl-1H-indol-3-yl)-1,3-thiazol-4-yl]-7-chloro-1H-pyrrolo[2,3-c]pyridine] |
| 225 to 226 °C | CC(C)(C)OC(=O)n1cc(-c2nc(-c3c[nH]c4c(Cl)nccc34)cs2)c2ccccc21 [Compound 3a, Tert-Butyl 3-[4-(7-Chloro-1H-pyrrolo[2,3-c]pyridin-3-yl)-1,3-thiazol-2-yl]-1H-indole-1-carboxylate] |
| 241 to 242 °C | CC(C)(C)OC(=O)n1cc(-c2nc(-c3c[nH]c4c(Cl)nccc34)cs2)c2cc(Br)ccc21 [Compound 3c, Tert-Butyl 5-bromo-3-[4-(7-chloro-1H-pyrrolo[2,3-c]pyridin-3-yl)-1,3-thiazol-2-yl]-1H-indole-1-carboxylate] |
| 284 to 285 °C | Cn1cc(-c2csc(-c3c[nH]c4ccc(F)cc34)n2)c2ccnc(Cl)c21 [Compound 2i, 7-Chloro-3-[2-(5-fluoro-1H-indol-3-yl)-1,3-thiazol-4-yl]-1-methyl-1H-pyrrolo[2,3-c]pyridine] |
| 281 to 282 °C | Fc1ccc2[nH]cc(-c3nc(-c4c[nH]c5c(Cl)nccc45)cs3)c2c1 [Compound 2j, 7-Chloro-3-[2-(5-fluoro-1H-indol-3-yl)-1,3-thiazol-4-yl]-1H-pyrrolo[2,3-c]pyridine] |
| 249 to 250 °C | Cn1cc(-c2nc(-c3cn(C)c4c(Cl)nccc34)cs2)c2cc(Br)ccc21 [Compound 2g, 3-[2-(5-Bromo-1-methyl-1H-indol-3-yl)-1,3-thiazol-4-yl]-7-chloro-1-methyl-1H-pyrrolo[2,3-c]pyridine] |
| 184 to 185 °C | COc1ccc2[nH]cc(-c3nc(-c4cn(C)c5c(Cl)nccc45)cs3)c2c1 [Compound 4e, 7-Chloro-3-[2-(5-methoxy-1H-indol-3-yl)-1,3-thiazol-4-yl]-1-methyl-1H-pyrrolo[2,3-c]pyridine] |
| 284 to 285 °C | Cn1cc(-c2nc(-c3cn(C)c4c(Cl)nccc34)cs2)c2cc(F)ccc21 [Compound 2h, 7-Chloro-3-[2-(5-fluoro-1-methyl-1H-indol-3-yl)-1,3-thiazol-4-yl]-1-methyl-1H-pyrrolo[2,3-c]pyridine] |
